# Laboratory results as given in publication PMC8233208 (The Journal of Biological Chemistry, 2021).
# Test system: ZIKV (MR766)
# Assay: ZIKV total RNA replication by qRT-PCR in infected A549 cells
# Format: cell-based, ZIKV African-lineage MR766 strain
# Details: 10 μM, RNA replication and NS5 assays
substance,measurement,value
destruxin A [Compound 12],"antiviral (anti-ZIKV) activity, comparison among tested compounds",more potent activities
